Measurements as given in patent publication US12441679B2, “Acrylamide-substituted indane compounds and therapeutic use thereof” (Sanofi, priority 2020, dated 2025).

Test system: YAP1-TEAD and TAZ-TEAD activity (TEAD responsive promoter element)
Assay: TEAD-Luciferase Reporter Assay (8XGTIIC-Luciferase construct stably integrated in tumor cell lines)
Assay type: cell-based, human
Conditions: 8XGTIIC-Luciferase reporter in tumor cell lines, 48 hrs compound treatment, 10 doses 1-10000 nM
Description: TEAD-Luciferase Reporter Assay
Luciferase-based gene reporter assays were used, employing the TEAD responsive promoter element that are stably integrated to different human tumor cell lines in order to monitor YAP1-TEAD and TAZ-TEAD activity and to study YAP1/TAZ-TEAD activity modulation by small molecule compounds. Luciferase-based gene reporter assays employing the GAPDH promoter element and stably integrated to different human tumor cell lines are used as counter screen control cell lines.
Tumor cell lines with stable integration of the 8XGTIIC-Luciferase construct (Dupont et al., Nature 2011) or the GAPDH-Luciferase control plasmid, are seeded in culture medium in 96-well plates at a density of 8000 cells/well. Following an overnight incubation in a 37° C., 5% CO2 growth chamber, cells are treated with compounds described above at 10 doses ranging between 1 and 10000 nM for 48 hrs. After compound incubation, cells are lysed with Bright-Glo Luciferase Assay System (Promega E2620) and luciferase activity is measured using a luminescent plate reader.
The inhibitory activity of the compounds with respect to luciferase activity is given by the concentration which inhibits 50% of activity of non-treated cells. IC50s are determined with a nonlinear regression model on XLfit software analysis (IDBS, UK).

| Molecule | IC50 |
| --- | --- |
| (R)—N-(1-((3-(trifluoromethyl)phenyl)amino)-2,3-dihydro-1H-inden-5-yl)acrylamide [Example 2] | 38 nM |

Same assay, conditions: Homo sapiens; 8XGTIIC-Luciferase reporter in tumor cell lines, 48 hrs compound treatment, 10 doses 1-10000 nM

| Molecule | IC50 |
| --- | --- |
| C=CC(=O)Nc1ccc2c(c1)CC(N[C@H]1CC[C@H](C(F)(F)F)CC1)C2 (relative stereo) [Example 27, N-(2-(((trans)-4-(trifluoromethyl)cyclohexyl)amino)-2,3-dihydro-1H-inden-5-yl)acrylamide] | > 10000 nM |
| C=CC(=O)Nc1ccc2c(c1)C(OCCCCF)CC2 (stereo not shown) [Example 34, N-(3-(4-fluorobutoxy)-2,3-dihydro-1H-inden-5-yl)acrylamide] | 2530 nM |
| C=CC(=O)Nc1ccc2c(c1)C(Nc1ccc(F)cc1)CC2 (stereo not shown) [Example 15, N-(3-((4-fluorophenyl)amino)-2,3-dihydro-1H-inden-5-yl)acrylamide] | 48 nM |
| C=CC(=O)Nc1ccc2c(c1)C(Nc1ccc(F)c(F)c1)CC2 (stereo not shown) [Example 13, N-(3-((3,4-difluorophenyl)amino)-2,3-dihydro-1H-inden-5-yl)acrylamide] | 37 nM |
| C=CC(=O)Nc1ccc2c(c1)C(OC1CCC(C(F)(F)F)C1)CC2 (stereo not shown) [Example 71, N-(3-((3-(trifluoromethyl)cyclopentyl)oxy)-2,3-dihydro-1H-inden-5-yl)acrylamide] | 820 nM |
| C=CC(=O)Nc1ccc2c(c1)C(OCC(F)(F)F)CC2 (stereo not shown) [Example 74, N-(3-(2,2,2-trifluoroethoxy)-2,3-dihydro-1H-inden-5-yl)acrylamide] | 3690 nM |
| C=CC(=O)Nc1ccc2c(c1)CCC2Nc1ccc(C(F)(F)F)nc1 (stereo not shown) [Example 20, N-(1-((6-(trifluoromethyl)pyridin-3-yl)amino)-2,3-dihydro-1H-inden-5-yl)acrylamide] | 358 nM |
| C=CC(=O)Nc1ccc2c(c1)CC(Nc1ccc(C(F)(F)F)cc1)C2 (stereo not shown) [Example 52, N-[2-[4-(trifluoromethyl)anilino]-2,3-dihydro-1H-inden-5-yl]acrylamide] | 2820 nM |
| C=CC(=O)Nc1ccc2c(c1)CC(NCCCC(F)(F)F)C2 (stereo not shown) [Example 29, N-(2-((4,4,4-trifluorobutyl)amino)-2,3-dihydro-1H-inden-5-yl)acrylamide] | > 10000 nM |
| C=CC(=O)Nc1ccc2c(c1)C(Oc1cccc(C(F)(F)F)c1)CC2 (stereo not shown) [Example 39, N-(3-(3-(trifluoromethyl)phenoxy)-2,3-dihydro-1H-inden-5-yl)acrylamide] | 53 nM |
| C=CC(=O)Nc1ccc2c(c1)CCC2N(C)c1ccccc1 (stereo not shown) [Example 63, N-(1-(methyl(phenyl)amino)-2,3-dihydro-1H-inden-5-yl)acrylamide] | 144 nM |
| C=CC(=O)Nc1ccc2c(c1)C[C@@H](O)[C@@H]2Nc1cccc(C(F)(F)F)c1 (relative stereo) [Example 95, N-[(trans)-2-hydroxy-1-[3-(trifluoromethyl)anilino]-2,3-dihydro-1H-inden-5-yl]acrylamide] | 653 nM |
| C=CC(=O)Nc1ccc2c(c1)CC[C@@H]2Oc1cccc(C(F)(F)F)c1 (single isomer, unassigned) [Example 84] | 153 nM |
| C=CC(=O)Nc1ccc2c(c1)C(OCCCCC(F)(F)F)CC2 (stereo not shown) [Example 72, N-(3-((5,5,5-trifluoropentyl)oxy)-2,3-dihydro-1H-inden-5-yl)acrylamide] | 861 nM |
| C=CC(=O)Nc1ccc2c(c1)C(Oc1cc(F)cc(F)c1)CC2 (stereo not shown) [Example 43, N-(3-(3,5-difluorophenoxy)-2,3-dihydro-1H-inden-5-yl)acrylamide] | 140 nM |
| C=CC(=O)Nc1ccc2c(c1)C(Oc1cccc(C(=O)OC)c1)CC2 (stereo not shown) [Example 47, methyl 3-[6-(prop-2-enoylamino)-2,3-dihydro-1H-inden-1-yl]oxybenzoate] | 4350 nM |
| C=CC(=O)Nc1ccc2c(c1)C(Oc1cccc(C)c1)CC2 (stereo not shown) [Example 79, N-(3-(m-tolyloxy)-2,3-dihydro-1H-inden-5-yl)acrylamide] | 8670 nM |

| Molecule | IC50 |
| --- | --- |
| C=CC(=O)Nc1ccc2c(c1)CCC2Nc1cccc(F)c1 (stereo not shown) [Example 8, N-(1-((3-fluorophenyl)amino)-2,3-dihydro-1H-inden-5-yl)acrylamide] | 132 nM |
| C=CC(=O)Nc1ccc2c(c1)CCC2Nc1cc(F)cc(F)c1 (stereo not shown) [Example 9, N-(1-((3,5-difluorophenyl)amino)-2,3-dihydro-1H-inden-5-yl)acrylamide] | 167 nM |
| C=CC(=O)Nc1ccc2c(c1)C(NCc1ccccc1)CC2 (stereo not shown) [Example 23, N-(3-(benzylamino)-2,3-dihydro-1H-inden-5-yl)acrylamide] | 9530 nM |
| C=CC(=O)Nc1ccc2c(c1)C(Nc1cccc(F)c1)CC2 (stereo not shown) [Example 14, N-(3-((3-fluorophenyl)amino)-2,3-dihydro-1H-inden-5-yl)acrylamide] | 54 nM |
| C=CC(=O)Nc1ccc2c(c1)CCC2Nc1cccc(C(F)(F)F)n1 (stereo not shown) [Example 60, N-(1-((6-(trifluoromethyl)pyridin-2-yl)amino)-2,3-dihydro-1H-inden-5-yl)acrylamide] | 346 nM |
| C=CC(=O)Nc1ccc2c(c1)[C@@H](OC)C[C@H]2Nc1cccc(C(F)(F)F)c1 (relative stereo) [Example 94, N-[(cis)-3-methoxy-1-[3-(trifluoromethyl)anilino]-2,3-dihydro-1H-inden-5-yl]acrylamide] | 395 nM |
| C=CC(=O)Nc1ccc2c(c1)CC(NCCCF)C2 (stereo not shown) [Example 30, N-(2-((3-fluoropropyl)amino)-2,3-dihydro-1H-inden-5-yl)acrylamide] | > 10000 nM |
| C=CC(=O)Nc1ccc2c(c1)C(Oc1cccc(SC)c1)CC2 (stereo not shown) [Example 80, N-(3-(3-(methylthio)phenoxy)-2,3-dihydro-1H-inden-5-yl)acrylamide] | 300 nM |
| C=CC(=O)Nc1ccc2c(c1)CCC2NCc1cccc(C(F)(F)F)c1 (stereo not shown) [Example 24, N-(1-((3-(trifluoromethyl)benzyl)amino)-2,3-dihydro-1H-inden-5-yl)acrylamide] | 8040 nM |
| C=CC(=O)N(C)c1ccc2c(c1)CCC2Oc1cccc(C(F)(F)F)c1 (stereo not shown) [Example 89, N-methyl-N-(1-(3-(trifluoromethyl)phenoxy)-2,3-dihydro-1H-inden-5-yl)acrylamide] | 1060 nM |
| C=CC(=O)Nc1ccc2c(c1)CCC2Nc1ccc(F)cc1 (stereo not shown) [Example 5, N-(1-((4-fluorophenyl)amino)-2,3-dihydro-1H-inden-5-yl)acrylamide] | 29 nM |
| C=CC(=O)Nc1ccc2c(c1)CCC2Nc1cc(C(F)(F)F)ccn1 (stereo not shown) [Example 59, N-(1-((4-(trifluoromethyl)pyridin-2-yl)amino)-2,3-dihydro-1H-inden-5-yl)acrylamide 2,2,2-trifluoroacetate] | 60 nM |
| C=CC(=O)Nc1ccc2c(c1)C(OCCCC(F)F)CC2 (stereo not shown) [Example 73, N-(3-(4,4-difluorobutoxy)-2,3-dihydro-1H-inden-5-yl)acrylamide] | 1310 nM |
| C=CC(=O)Nc1ccc2c(c1)CC[C@H]2Nc1ccc(C(F)(F)F)cc1 (single isomer, unassigned) [Example 55] | 38 nM |
| C=CC(=O)Nc1ccc2c(c1)CCC2Nc1cccc(C(F)(F)F)c1 (stereo not shown) [Example 1, N-(1-((3-(trifluoromethyl)phenyl)amino)-2,3-dihydro-1H-inden-5-yl)acrylamide] | 72 nM |
| C=CC(=O)Nc1ccc2c(c1)C(Nc1ccc(C(F)(F)F)cc1)CC2 (stereo not shown) [Example 12, N-(3-((4-(trifluoromethyl)phenyl)amino)-2,3-dihydro-1H-inden-5-yl)acrylamide] | 55 nM |
